Among the data in patent US20090111778A1, “2-Keto-Oxazoles as Modulators of Fatty Acid Amide Hydrolase” (priority 2005, published 2009) are IC50 values, retold here.

For one assay, the target named is T1, human FAAH (Homo sapiens, UniProt O00519).
T1 construct: expressed in transfected cells
T1 sequence (O00519 1-579): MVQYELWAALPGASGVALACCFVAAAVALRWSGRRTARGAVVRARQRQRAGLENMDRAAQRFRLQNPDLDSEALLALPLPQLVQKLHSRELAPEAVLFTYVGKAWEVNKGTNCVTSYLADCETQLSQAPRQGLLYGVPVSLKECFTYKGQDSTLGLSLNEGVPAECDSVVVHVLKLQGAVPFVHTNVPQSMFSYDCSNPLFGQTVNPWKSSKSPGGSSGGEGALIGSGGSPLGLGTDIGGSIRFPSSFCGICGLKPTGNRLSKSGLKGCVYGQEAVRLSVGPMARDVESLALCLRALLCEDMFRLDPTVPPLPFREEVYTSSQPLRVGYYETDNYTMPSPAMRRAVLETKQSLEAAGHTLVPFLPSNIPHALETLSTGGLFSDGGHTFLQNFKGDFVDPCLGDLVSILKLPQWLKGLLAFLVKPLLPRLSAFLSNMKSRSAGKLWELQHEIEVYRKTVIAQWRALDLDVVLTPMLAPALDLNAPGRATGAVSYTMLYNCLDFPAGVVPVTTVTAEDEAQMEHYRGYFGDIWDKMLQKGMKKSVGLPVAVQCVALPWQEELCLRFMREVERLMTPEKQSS
In words: Assay Method 1: FAAH assay, hydrolysis of 3H-anandamide by homogenate of SK-N-MC cells transfected with human FAAH. The assay is classed as biochemical. Conditions: human FAAH; T84 or transfected SK-N-MC cell homogenate; 3H-AEA tracer 80 nM; rt 1 h; pH 9; read-out: Assay 1 IC50. As to the method: A. Transfection of Cells with Human FAAH
(§1) A 10-cm tissue culture dish with a confluent monolayer of SK-N-MC cells was split 2 days (d) prior to transfection. Using sterile technique, the media was removed and the cells were detached from the dish by the addition of trypsin. One fifth of the cells were then placed onto a new 10-cm dish. Cells were grown in a 37° C. incubator with 5% CO2 in Minimal Essential Media Eagle with 10% Fetal Bovine Serum. After 2 d, cells were approximately 80% confluent. These cells were removed from the dish with trypsin and pelleted in a clinical centrifuge. The pellet was re-suspended in 400 μL complete media and transferred to an electroporation cuvette with a 0.4 cm gap between the electrodes. Supercoiled human FAAH cDNA (1 μg) was added to the cells and mixed. The voltage for the electroporation was set at 0.25 kV, and the capacitance was set at 960 μF. After electroporation, the cells were diluted into complete media (10 mL) and plated onto four 10-cm dishes. Because of the variability in the efficiency of electroporation, four different concentrations of cells were plated. The ratios used were 1:20, 1:10, and 1:5, with the remainder of the cells being added to the fourth dish. The cells were allowed to recover for 24 h before adding the selection media (complete media with 600 μg/mL G418). After 10 d, dishes were analyzed for surviving colonies of cells. Dishes with well-isolated colonies were used. Cells from individual colonies were isolated and tested.
The assay mixture consisted of […] of the cell homogenate, 10 μL of the test compound, and 40 μL of anandamide [1-^3H-ethanolamine] (3H-AEA, Perkin-Elmer, 10.3 Ci/mmol), which was added last, for a final tracer concentration of 80 nM. The reaction mixture was incubated at rt for 1 h. During the incubation, 96-well Multiscreen filter plates (catalog number MAFCNOB50; Millipore, Bedford, Mass., USA) were loaded with 25 μL of activated charcoal (Multiscreen column loader, catalog number MACL09625, Millipore) and washed once with 100 μL of MeOH. Also during the incubation, 96-well DYNEX MicroLite plates (catalog number NL510410) were loaded with 100 μL of MicroScint40 (catalog number 6013641, Packard Bioscience, Meriden, Conn., USA). After the 1 h incubation, 60 μL of the reaction mixture were transferred to the charcoal plates, which were then assembled on top of the DYNEX plates using Centrifuge Alignment Frames (catalog number MACF09604, Millipore). The unbound labeled ethanolamine was centrifuged through to the bottom plate (5 min at 2000 rpm), which was preloaded with the scintillant, as described above. The plates were sealed and left at rt for 1 h before counting on a Hewlett Packard TopCount.

The target in another assay is T2, rat FAAH (Rattus norvegicus, UniProt P97612).
T2 construct: expressed in transfected cells
T2 sequence (P97612 1-579): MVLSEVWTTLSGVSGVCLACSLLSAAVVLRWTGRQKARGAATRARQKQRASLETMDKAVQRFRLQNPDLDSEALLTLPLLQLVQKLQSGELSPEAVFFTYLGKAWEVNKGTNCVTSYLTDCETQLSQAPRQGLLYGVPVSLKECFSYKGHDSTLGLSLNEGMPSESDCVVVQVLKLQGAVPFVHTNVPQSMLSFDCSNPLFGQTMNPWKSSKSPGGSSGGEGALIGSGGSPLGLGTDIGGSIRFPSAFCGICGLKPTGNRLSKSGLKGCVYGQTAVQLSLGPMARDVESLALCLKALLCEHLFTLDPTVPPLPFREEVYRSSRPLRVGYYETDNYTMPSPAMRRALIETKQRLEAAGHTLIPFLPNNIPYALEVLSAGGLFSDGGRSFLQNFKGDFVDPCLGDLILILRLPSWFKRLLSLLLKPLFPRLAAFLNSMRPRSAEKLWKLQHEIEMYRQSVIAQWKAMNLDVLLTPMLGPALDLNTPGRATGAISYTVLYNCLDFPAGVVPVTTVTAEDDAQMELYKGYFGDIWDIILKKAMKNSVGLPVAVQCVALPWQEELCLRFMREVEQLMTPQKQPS
In words: Assay Method 2: FAAH assay, hydrolysis of 3H-anandamide by homogenate of SK-N-MC cells transfected with rat FAAH. The assay is classed as biochemical. Conditions: T84 or transfected SK-N-MC cell homogenate, 3H-AEA tracer 80 nM, rt 1 h, pH 9. The method, then: as §1, with “A. Transfection of Cells with Rat FAAH A 10-cm” for “A 10-cm”, “electrodes. Supercoiled rat FAAH cDNA” for “electrodes. Supercoiled human FAAH cDNA”, “and tested. […] B. FAAH Assay […] The reaction mixture was incubated at rt for 1 h. During the incubation, 96-well Multiscreen filter plates (catalog number MAFCNOB50; Millipore, Bedford, Mass., USA) were loaded with 25 μL of activated charcoal (Multiscreen column loader, catalog number MACL09625, Millipore) and washed once with 100 μL of MeOH. Also during the incubation, 96-well DYNEX MicroLite plates (catalog number NL510410) were loaded with 100 μL of MicroScint40 (catalog number 6013641, Packard Bioscience, Meriden, Conn., USA). After the 1 h incubation, 60 μL of the reaction mixture were transferred to the charcoal plates, which were then assembled on top of the DYNEX plates using Centrifuge Alignment Frames (catalog number MACF09604, Millipore). The unbound labeled ethanolamine was centrifuged through to the bottom plate (5 min at 2000 rpm), which was preloaded with the scintillant, as described above. The plates were sealed and left at rt for 1 h before counting on a Hewlett Packard TopCount.” for “and tested.”

One may read the pIC50 as −log10 of the IC50, conventionally taken in molar units.

pIC50: −log10 of the molar value. Where a name gives a salt, the structure may show the parent alone.

Turning to `O=C(CCCC1CCN(Cc2ccc(C(F)(F)F)c(F)c2)CC1)c1ncco1` [Example 137, 4-[1-(3-Fluoro-4-trifluoromethyl-benzyl)-piperidin-4-yl]-1-oxazol-2-yl-butan-1-one], the results for the pIC50 at human FAAH and against rat FAAH were 8.00 and 6.42, respectively.
The like results for `O=C(CCCC1CCN(C(=O)Cc2ccccc2)CC1)c1ncco1` [Example 27, 1-Oxazol-2-yl-4-(1-phenylacetyl-piperidin-4-yl)-butan-1-one] were, in that order, 6.30 and 5.89.
On to `O=C(CCCC1CCN(Cc2ccccc2)CC1)c1ncc(-c2ccco2)o1` [Example 121, 4-(1-Benzyl-piperidin-4-yl)-1-(5-furan-2-yl-oxazol-2-yl)-butan-1-one], for which the values for the pIC50 on human FAAH and at rat FAAH were 6.59 and 6.49, respectively.
As to `CC(C)c1ccc(CN2CCC(CCCC(=O)c3ncco3)CC2)cn1` [Example 132, 4-[1-(6-Isopropyl-pyridin-3-ylmethyl)-piperidin-4-yl]-1-oxazol-2-yl-butan-1-one], the pIC50 at human FAAH is 7.28; on rat FAAH, 6.02.
Turning to `O=C(CCCC1CCN(C(=O)Cc2ccccc2Cl)CC1)c1ncco1` [Example 42, 4-{1-[2-(2-Chloro-Phenyl)-acetyl]-piperidin-4-yl}-1-oxazol-2-yl-butan-1-one], the pIC50 at human FAAH was 6.37; against rat FAAH it was 6.10.
On to `O=C(CCCC1CCN(Cc2ccc(F)c(F)c2)CC1)c1ncco1` [Example 115, 4-[1-(3,4-Difluoro-benzyl)-piperidin-4-yl]-1-oxazol-2-yl-butan-1-one], for which the pIC50 on human FAAH was 7.11; on rat FAAH, 6.12.
As to `O=C(CCCC1CCN(C(=O)CCc2ccc(Oc3ccccc3)cc2)CC1)c1ncco1` [Example 37, 1-Oxazol-2-yl-4-{1-[3-(4-phenoxy-phenyl)-propionyl]-piperidin-4-yl}-butan-1-one], the pIC50 is 7.66 on human FAAH and 7.74 on rat FAAH.
The like results for `O=C(CCCC1CCN(C(=O)OCCOCc2ccccc2)CC1)c1ncco1` [Example 66, 4-(4-Oxazol-2-yl-4-oxo-butyl)-piperidine-1-carboxylic acid 2-benzyloxy-ethyl ester] were, in that order, 9.15 and 8.70.
On to `O=C(CCCC1CCN(C(=O)CC2CCCC2)CC1)c1ncco1` [Example 48, 4-[1-(2-Cyclopentyl-acetyl)-piperidin-4-yl]-1-oxazol-2-yl-butan-1-one], for which the pIC50 is 7.00 at human FAAH and 6.67 against rat FAAH.
For `Cc1ccc(CCC(=O)N2CCC(CCCC(=O)c3ncco3)CC2)cc1` [Example 44, 1-Oxazol-2-yl-4-[1-(3-p-tolyl-propionyl)-piperidin-4-yl]-butan-1-one], the pIC50 was 7.40 at human FAAH and 8.00 against rat FAAH.
In the case of `CC(C)c1cccc(CN2CCC(CCCC(=O)c3ncco3)CC2)c1` [Example 140, 4-[1-(3-Isopropyl-benzyl)-piperidin-4-yl]-1-oxazol-2-yl-butan-1-one], the figures for the pIC50 on human FAAH and against rat FAAH were 9.00 and 8.52, respectively.
On the same counts, the results for `O=C(O)c1cccc(-c2cnc(C(=O)CCCC3CCN(Cc4cccc(OC5CCCCC5)c4)CC3)o2)n1` [Example 150, 6-(2-{4-[1-(3-Cyclohexyloxy-benzyl)-piperidin-4-yl]-butyryl}-oxazol-5-yl)-pyridine-2-carboxylic acid trifluoroacetic acid salt] are 7.80 and 8.15.
Turning to `O=C(CCCC1CCN(Cc2ccc(-c3ccsc3)nc2)CC1)c1ncco1` [Example 111, 1-Oxazol-2-yl-4-[1-(6-thiophen-3-yl-pyridin-3-ylmethyl)-piperidin-4-yl]-butan-1-one], the values for the pIC50 at human FAAH and against rat FAAH were 7.82 and 6.71, respectively.
The like results for `COc1ccc(S(=O)(=O)N2CCC(CCCC(=O)c3ncco3)CC2)cc1` [Example 61, 4-[1-(4-Methoxy-benzenesulfonyl)-piperidin-4-yl]-1-oxazol-2-yl-butan-1-one] were, in that order, 8.70 and 7.43.
With `N#Cc1cccc(-c2ccc(CN3CCC(CCCC(=O)c4ncco4)CC3)cn2)c1` [Example 112, 3-{5-[4-(4-Oxazol-2-yl-4-oxo-butyl)-piperidin-1-ylmethyl]-pyridin-2-yl}-benzonitrile], the pIC50 at human FAAH was 7.85; at rat FAAH, 6.76.
`O=C(CCCC1CCN(Cc2ccc(-n3ccnc3)cc2)CC1)c1ncco1` [Example 141, 4-[1-(4-Imidazol-1-yl-benzyl)-piperidin-4-yl]-1-oxazol-2-yl-butan-1-one]: the pIC50 on human FAAH was 7.08; against rat FAAH, 5.82.
Regarding `O=C(CCCC1CCN(Cc2ccc3ccccc3c2)CC1)c1ncco1` [Example 20, 4-(1-Naphthalen-2-ylmethyl-piperidin-4-yl)-1-oxazol-2-yl-butan-1-one], the pIC50 on human FAAH is 8.10; on rat FAAH, 8.05.
